Earlier results in PMC9851200, “Multiparameter phenotypic screening for endogenous TFEB and TFE3 translocation identifies novel chemical series modulating lysosome function” (Autophagy, 2022).

How the values were obtained:
Set-up in all cases: method as in original PKIS2 published data
[1] = biological target: T1, kinases (KINOMEscan panel) (Homo sapiens, UniProt O14757); details: CHEK1; Published KINOMEscan; ref original PKIS2 published data; cited from earlier work
T1 sequence (O14757 1-476): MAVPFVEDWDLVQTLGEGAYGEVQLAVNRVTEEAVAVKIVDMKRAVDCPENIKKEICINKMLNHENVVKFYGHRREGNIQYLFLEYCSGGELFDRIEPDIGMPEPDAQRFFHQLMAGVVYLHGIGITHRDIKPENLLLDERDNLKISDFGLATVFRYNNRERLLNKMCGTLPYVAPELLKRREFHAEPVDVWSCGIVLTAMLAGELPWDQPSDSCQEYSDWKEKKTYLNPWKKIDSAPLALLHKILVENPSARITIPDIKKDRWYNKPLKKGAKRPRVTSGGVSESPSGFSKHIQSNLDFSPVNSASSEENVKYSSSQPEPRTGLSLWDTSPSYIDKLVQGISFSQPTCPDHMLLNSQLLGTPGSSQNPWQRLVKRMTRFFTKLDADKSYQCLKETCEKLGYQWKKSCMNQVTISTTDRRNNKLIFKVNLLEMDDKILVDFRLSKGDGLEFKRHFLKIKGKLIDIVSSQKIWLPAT

[2] = biological target: kinases (KINOMEscan panel) (Homo sapiens, UniProt O96013); details: PAK4; Published KINOMEscan; ref original PKIS2 published data; cited from earlier work
[3] = biological target: kinases (KINOMEscan panel) (Homo sapiens, UniProt P22694); details: PRKACB; Published KINOMEscan; ref original PKIS2 published data; cited from earlier work
[4] = biological target: kinases (KINOMEscan panel) (Homo sapiens, UniProt P49137); details: kinase MAPKAPK2; Published KINOMEscan; ref original PKIS2 published data; cited from earlier work
[5] = biological target: T2, kinases (KINOMEscan panel) (Homo sapiens, UniProt P54753); details: kinase EPHB3; Published KINOMEscan; ref original PKIS2 published data; cited from earlier work
T2 sequence (P54753 34-998): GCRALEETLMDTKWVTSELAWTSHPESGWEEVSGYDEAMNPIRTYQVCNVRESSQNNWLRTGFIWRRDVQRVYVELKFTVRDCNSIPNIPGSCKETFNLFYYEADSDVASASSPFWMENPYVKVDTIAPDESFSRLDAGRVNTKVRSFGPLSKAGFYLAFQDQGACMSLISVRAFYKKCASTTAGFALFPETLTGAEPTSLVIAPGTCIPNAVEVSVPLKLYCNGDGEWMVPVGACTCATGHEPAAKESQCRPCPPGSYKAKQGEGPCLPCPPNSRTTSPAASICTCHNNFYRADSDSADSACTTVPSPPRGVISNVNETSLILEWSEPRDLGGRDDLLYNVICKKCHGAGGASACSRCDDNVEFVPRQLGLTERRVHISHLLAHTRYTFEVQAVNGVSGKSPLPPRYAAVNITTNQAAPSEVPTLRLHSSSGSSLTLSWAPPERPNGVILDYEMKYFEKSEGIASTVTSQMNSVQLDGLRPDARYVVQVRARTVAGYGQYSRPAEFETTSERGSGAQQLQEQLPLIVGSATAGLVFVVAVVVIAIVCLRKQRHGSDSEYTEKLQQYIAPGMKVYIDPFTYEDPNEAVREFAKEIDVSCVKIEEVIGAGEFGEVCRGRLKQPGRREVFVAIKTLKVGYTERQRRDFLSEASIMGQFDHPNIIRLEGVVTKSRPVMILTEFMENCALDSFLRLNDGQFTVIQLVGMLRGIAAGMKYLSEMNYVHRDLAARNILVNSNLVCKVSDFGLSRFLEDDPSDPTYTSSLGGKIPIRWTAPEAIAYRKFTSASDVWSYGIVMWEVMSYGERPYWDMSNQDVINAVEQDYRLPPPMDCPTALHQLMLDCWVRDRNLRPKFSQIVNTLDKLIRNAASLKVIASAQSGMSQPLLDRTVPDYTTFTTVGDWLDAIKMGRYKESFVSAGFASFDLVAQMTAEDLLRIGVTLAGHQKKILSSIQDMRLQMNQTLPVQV

[6] = biological target: kinases (KINOMEscan panel) (Homo sapiens, UniProt Q5VT25); details: cited from earlier work
[7] = biological target: T3, kinases (KINOMEscan panel) (Homo sapiens, UniProt Q6XUX3); details: DSTYK; Published KINOMEscan; ref original PKIS2 published data; cited from earlier work
T3 sequence (Q6XUX3 1-929): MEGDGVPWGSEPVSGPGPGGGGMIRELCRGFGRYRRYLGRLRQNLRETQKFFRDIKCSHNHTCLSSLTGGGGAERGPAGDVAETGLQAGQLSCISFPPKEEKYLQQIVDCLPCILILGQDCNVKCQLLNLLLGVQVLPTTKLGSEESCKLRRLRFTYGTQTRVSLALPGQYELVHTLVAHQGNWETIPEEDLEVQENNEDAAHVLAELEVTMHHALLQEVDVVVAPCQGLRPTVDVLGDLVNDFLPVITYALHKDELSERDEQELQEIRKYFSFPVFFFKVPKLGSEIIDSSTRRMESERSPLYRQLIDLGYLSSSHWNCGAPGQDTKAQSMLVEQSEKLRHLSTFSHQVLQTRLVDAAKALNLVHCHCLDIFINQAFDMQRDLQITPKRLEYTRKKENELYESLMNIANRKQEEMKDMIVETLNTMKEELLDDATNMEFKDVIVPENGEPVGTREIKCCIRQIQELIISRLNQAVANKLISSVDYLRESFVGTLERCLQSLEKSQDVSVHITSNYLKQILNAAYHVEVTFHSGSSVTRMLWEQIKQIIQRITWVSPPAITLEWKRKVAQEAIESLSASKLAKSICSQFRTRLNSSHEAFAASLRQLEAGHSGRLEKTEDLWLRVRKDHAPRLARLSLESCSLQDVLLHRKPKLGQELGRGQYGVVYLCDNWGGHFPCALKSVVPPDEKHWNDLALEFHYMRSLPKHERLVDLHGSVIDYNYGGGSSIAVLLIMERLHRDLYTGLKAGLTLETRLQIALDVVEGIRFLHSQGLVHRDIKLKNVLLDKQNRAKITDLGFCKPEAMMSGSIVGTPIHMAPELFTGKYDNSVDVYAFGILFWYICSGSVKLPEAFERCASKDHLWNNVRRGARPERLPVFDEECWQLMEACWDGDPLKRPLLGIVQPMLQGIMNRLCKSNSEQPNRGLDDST

Chain of kinases (KINOMEscan panel) (Homo sapiens, UniProt P49137) (P49137 whole entry): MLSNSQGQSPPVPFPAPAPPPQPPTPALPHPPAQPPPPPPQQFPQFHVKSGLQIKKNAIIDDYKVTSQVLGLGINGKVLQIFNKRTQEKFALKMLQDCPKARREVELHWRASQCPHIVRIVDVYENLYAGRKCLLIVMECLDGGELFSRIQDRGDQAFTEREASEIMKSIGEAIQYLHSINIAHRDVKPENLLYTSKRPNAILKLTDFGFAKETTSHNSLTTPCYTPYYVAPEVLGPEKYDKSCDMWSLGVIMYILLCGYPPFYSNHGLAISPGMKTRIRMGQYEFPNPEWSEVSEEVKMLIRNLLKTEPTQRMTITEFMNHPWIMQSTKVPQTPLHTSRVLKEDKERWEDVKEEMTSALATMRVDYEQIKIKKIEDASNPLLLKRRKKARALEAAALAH
Chain of kinases (KINOMEscan panel) (Homo sapiens, UniProt Q5VT25) (Q5VT25 whole entry): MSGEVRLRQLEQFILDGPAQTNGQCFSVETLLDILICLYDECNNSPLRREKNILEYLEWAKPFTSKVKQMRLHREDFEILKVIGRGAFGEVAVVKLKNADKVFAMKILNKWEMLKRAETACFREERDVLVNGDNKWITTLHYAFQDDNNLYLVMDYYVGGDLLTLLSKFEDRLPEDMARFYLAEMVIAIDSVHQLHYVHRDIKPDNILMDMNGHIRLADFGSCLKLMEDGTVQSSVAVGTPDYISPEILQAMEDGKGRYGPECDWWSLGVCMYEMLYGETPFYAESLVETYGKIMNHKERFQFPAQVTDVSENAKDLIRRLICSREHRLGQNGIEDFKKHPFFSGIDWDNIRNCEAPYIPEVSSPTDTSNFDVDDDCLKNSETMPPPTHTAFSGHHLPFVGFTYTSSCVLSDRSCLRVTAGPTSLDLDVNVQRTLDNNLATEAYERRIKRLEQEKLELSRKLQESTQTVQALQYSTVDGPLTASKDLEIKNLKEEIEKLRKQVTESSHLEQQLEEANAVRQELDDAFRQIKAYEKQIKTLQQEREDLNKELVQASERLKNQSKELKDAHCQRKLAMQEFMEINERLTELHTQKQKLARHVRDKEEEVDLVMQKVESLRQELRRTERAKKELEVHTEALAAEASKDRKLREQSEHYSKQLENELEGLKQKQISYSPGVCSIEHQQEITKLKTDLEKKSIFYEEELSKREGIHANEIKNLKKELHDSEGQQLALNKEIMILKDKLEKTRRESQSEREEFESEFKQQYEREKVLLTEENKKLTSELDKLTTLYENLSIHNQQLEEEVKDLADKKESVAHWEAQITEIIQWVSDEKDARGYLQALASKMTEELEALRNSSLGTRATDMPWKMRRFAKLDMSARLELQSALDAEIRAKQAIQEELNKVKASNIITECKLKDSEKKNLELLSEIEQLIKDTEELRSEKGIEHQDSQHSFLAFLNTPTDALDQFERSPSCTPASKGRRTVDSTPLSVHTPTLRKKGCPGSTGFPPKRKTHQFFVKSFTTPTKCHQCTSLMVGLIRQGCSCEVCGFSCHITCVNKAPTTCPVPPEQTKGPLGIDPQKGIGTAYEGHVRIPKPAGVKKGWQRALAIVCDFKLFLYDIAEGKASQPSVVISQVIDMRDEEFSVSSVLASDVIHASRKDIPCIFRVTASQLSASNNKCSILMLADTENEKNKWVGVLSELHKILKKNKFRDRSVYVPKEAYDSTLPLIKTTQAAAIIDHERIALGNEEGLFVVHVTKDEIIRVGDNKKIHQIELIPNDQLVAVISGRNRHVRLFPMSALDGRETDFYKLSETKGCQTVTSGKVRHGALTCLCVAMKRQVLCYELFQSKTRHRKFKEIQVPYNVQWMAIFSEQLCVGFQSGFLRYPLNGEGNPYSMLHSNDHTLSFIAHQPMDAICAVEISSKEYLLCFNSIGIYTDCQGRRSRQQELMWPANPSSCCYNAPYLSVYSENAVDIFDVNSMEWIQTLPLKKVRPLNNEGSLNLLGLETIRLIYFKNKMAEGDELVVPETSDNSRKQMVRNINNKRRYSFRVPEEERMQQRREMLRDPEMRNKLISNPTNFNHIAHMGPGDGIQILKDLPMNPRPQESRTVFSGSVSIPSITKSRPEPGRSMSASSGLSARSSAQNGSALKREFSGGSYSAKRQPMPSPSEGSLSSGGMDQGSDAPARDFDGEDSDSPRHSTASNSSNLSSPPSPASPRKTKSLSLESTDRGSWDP
Chain of kinases (KINOMEscan panel) (Homo sapiens, UniProt O96013) (O96013 whole entry): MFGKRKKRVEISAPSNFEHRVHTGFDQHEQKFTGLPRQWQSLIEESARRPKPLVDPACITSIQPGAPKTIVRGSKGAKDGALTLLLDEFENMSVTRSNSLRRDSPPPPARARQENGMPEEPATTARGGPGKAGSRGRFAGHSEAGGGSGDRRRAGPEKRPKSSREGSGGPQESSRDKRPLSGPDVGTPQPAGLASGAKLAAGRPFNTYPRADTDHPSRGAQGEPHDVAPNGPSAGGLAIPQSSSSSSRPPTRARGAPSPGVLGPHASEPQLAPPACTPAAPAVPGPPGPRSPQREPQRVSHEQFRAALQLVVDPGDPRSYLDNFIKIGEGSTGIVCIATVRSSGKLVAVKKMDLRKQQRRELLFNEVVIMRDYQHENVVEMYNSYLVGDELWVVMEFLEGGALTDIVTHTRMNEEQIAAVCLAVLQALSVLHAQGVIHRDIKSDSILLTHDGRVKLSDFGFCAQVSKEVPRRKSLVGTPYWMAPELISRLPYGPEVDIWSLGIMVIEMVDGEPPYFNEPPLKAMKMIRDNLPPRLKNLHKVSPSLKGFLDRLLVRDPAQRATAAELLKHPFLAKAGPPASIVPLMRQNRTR

For `Cc1cccc(-c2nc(Nc3ccncc3)c3ccccc3n2)n1` [NK215], the “KINOMEscan CHEK1” value [1] is given as 0, the “KINOMEscan PAK4” value [2] is given as 0 and the “KINOMEscan PRKACB” value [3] is given as 30. The “KINOMEscan MAPKAPK2” value [4] was 0, the “KINOMEscan EPHB3” value [5] was 11 and the “KINOMEscan CDC42BPA/MRCKA” value [6] was 47. For the same compound, the “KINOMEscan DSTYK” value [7] was 0.
